Source: PMC10272180, “Ancient medicinal plant rosemary contains a highly efficacious and isoform-selective KCNQ potassium channel opener” (Communications Biology, 2023)

Legend:
KCNQ3*-G245A = KCNQ3*-G245A (Homo sapiens, UniProt O43525, A315T/G245A); test: TEVC of mutant KCNQ3*-G245A in oocytes; format: cell-based; conditions: 100 µM
Description: (§1) We generated cRNA transcripts encoding human KCNQ1, 2, 3, and 5 (wild-type and mutant) by in vitro transcription using the mMessage mMachine kit (Thermo Fisher Scientific, Waltham, MA, USA) according to manufacturer’s instructions, after vector linearization, from cDNA sub-cloned into expression vectors (pTLNx and pXOOM) incorporating Xenopus laevis β-globin 5’ and 3’ UTRs flanking the coding region to enhance translation and cRNA stability. Mutant KCNQ cDNAs were generated by Genscript (Piscataway, NJ, USA) and cRNAs made as above. We injected defolliculated stage V and VI Xenopus laevis oocytes (Xenoocyte, Dexter, MI, USA) with KCNQ cRNAs (2–10 ng) and incubated the oocytes at 16 °C in ND96 oocyte storage solution containing penicillin and streptomycin, with daily washing, for 2–4 days prior to two-electrode voltage-clamp (TEVC) recording.
We performed TEVC at room temperature using an OC-725C amplifier (Warner Instruments, Hamden, CT, USA) and pClamp10 software (Molecular Devices, Sunnyvale, CA, USA) 2–4 days after cRNA injection. […] We recorded currents in response to voltage pulses between −120 mV and +40 mV at 10 mV intervals from a holding potential of −80 mV, to yield current-voltage relationships and examine activation kinetics. We analyzed data using Clampfit (Molecular Devices) and Graphpad Prism software (GraphPad, San Diego, CA, USA), stating values as mean ± SEM. […]

[1] = cited from earlier work
KCNQ3*-W265L = KCNQ3*-W265L (Homo sapiens, UniProt O43525, A315T/W265L); test: TEVC of mutant KCNQ3*-W265L in oocytes; format: cell-based
Description: as §1
(§2) We performed TEVC at room temperature using an OC-725C amplifier (Warner Instruments, Hamden, CT, USA) and pClamp10 software (Molecular Devices, Sunnyvale, CA, USA) 2–4 days after cRNA injection. We placed oocytes in a small-volume oocyte bath (Warner) and viewed them with a dissection microscope for cellular electrophysiology. We sourced chemicals from Sigma-Aldrich (St. Louis, MO, USA) and Combi-Blocks (San Diego, CA, USA). We studied effects of Salvia rosmarinus extracts and of compounds, solubilized directly in bath solution (in mM): 96 NaCl, 4 KCl, 1 MgCl2, 1 CaCl2, 10 HEPES (pH 7.6). We introduced extracts or compounds into the oocyte recording bath by gravity perfusion at a constant flow of 1 ml per minute for 3 min prior to recording. Pipettes were of 1-2 MΩ resistance when filled with 3 M KCl. […] We analyzed data using Clampfit (Molecular Devices) and Graphpad Prism software (GraphPad, San Diego, CA, USA), stating values as mean ± SEM. We plotted raw or normalized tail currents versus prepulse voltage and fitted with a single Boltzmann function:1 g=(A1−A2)/1+exp[V1/2−V/Vs]y+A2 where g is the normalized tail conductance, A1 is the initial value at -∞, A2 is the final value at +∞, V1/2 is the half-maximal voltage of activation and Vs the slope factor. We fitted activation and deactivation kinetics with single exponential functions.

KCNQ3*-G244A = KCNQ3*-G244A (Homo sapiens, UniProt O43525, A315T/G244A); test: TEVC of mutant KCNQ3*-G244A in oocytes; format: cell-based; conditions: 100 µM
Description: as §1
We performed TEVC at room temperature using an OC-725C amplifier (Warner Instruments, Hamden, CT, USA) and pClamp10 software (Molecular Devices, Sunnyvale, CA, USA) 2–4 days after cRNA injection. We placed oocytes in a small-volume oocyte bath (Warner) and viewed them with a dissection microscope for cellular electrophysiology. We sourced chemicals from Sigma-Aldrich (St. Louis, MO, USA) and Combi-Blocks (San Diego, CA, USA). We studied effects of Salvia rosmarinus extracts and of compounds, solubilized directly in bath solution (in mM): 96 NaCl, 4 KCl, 1 MgCl2, 1 CaCl2, 10 HEPES (pH 7.6). We introduced extracts or compounds into the oocyte recording bath by gravity perfusion at a constant flow of 1 ml per minute for 3 min prior to recording. Pipettes were of 1-2 MΩ resistance when filled with 3 M KCl. We recorded currents in response to voltage pulses between −120 mV and +40 mV at 10 mV intervals from a holding potential of −80 mV, to yield current-voltage relationships and examine activation kinetics. We analyzed data using Clampfit (Molecular Devices) and Graphpad Prism software (GraphPad, San Diego, CA, USA), stating values as mean ± SEM. […]

KCNQ3*-R242A = KCNQ3*-R242A (Homo sapiens, UniProt O43525, A315T/R242A); test: TEVC of mutant KCNQ3*-R242A in oocytes; format: cell-based
Description: as §1
We performed TEVC at room temperature using an OC-725C amplifier (Warner Instruments, Hamden, CT, USA) and pClamp10 software (Molecular Devices, Sunnyvale, CA, USA) 2–4 days after cRNA injection. We placed oocytes in a small-volume oocyte bath (Warner) and viewed them with a dissection microscope for cellular electrophysiology. We sourced chemicals from Sigma-Aldrich (St. Louis, MO, USA) and Combi-Blocks (San Diego, CA, USA). We studied effects of Salvia rosmarinus extracts and of compounds, solubilized directly in bath solution (in mM): 96 NaCl, 4 KCl, 1 MgCl2, 1 CaCl2, 10 HEPES (pH 7.6). We introduced extracts or compounds into the oocyte recording bath by gravity perfusion at a constant flow of 1 ml per minute for 3 min prior to recording. Pipettes were of 1-2 MΩ resistance when filled with 3 M KCl. We recorded currents in response to voltage pulses between −120 mV and +40 mV at 10 mV intervals from a holding potential of −80 mV, to yield current-voltage relationships and examine activation kinetics. We analyzed data using Clampfit (Molecular Devices) and Graphpad Prism software (GraphPad, San Diego, CA, USA), stating values as mean ± SEM. We plotted raw or normalized tail currents versus prepulse voltage and fitted with a single Boltzmann function:1 g=(A1−A2)/1+exp[V1/2−V/Vs]y+A2 where g is the normalized tail conductance, A1 is the initial value at -∞, A2 is the final value at +∞, V1/2 is the half-maximal voltage of activation and Vs the slope factor. We fitted activation and deactivation kinetics with single exponential functions.

GABAA receptor = tested on: GABAA receptor; parameters: method as in PMID 1378214; conditions: rat brain membranes in vitro; cited from earlier work
KCNQ3/5 = biological target: T1, KCNQ3/5 (Homo sapiens, UniProt O43525+Q9NR82); test: TEVC of KCNQ3/5 heteromers expressed in Xenopus laevis oocytes; format: cell-based
T1 construct: expressed in transfected cells; host or cells: Xenopus laevis oocytes co-injected with cRNAs
Description: as §1, §2

In the case of `CC(C)c1cc2c(c(O)c1O)[C@@]1(C(=O)O)CCCC(C)(C)[C@@H]1CC2` [Carnosic acid, carnosic acid], the Slope (KCNQ3*-G245A) is given as 12.79 ± 4.65 mV, the “V0.5 Normalized tail current” value (KCNQ3*-G245A) is given as -129.4 ± 1.24 mV and the “blood brain barrier crossing” value [1] is given as “crosses the blood brain barrier”. For the same compound, the “V0.5 Normalized tail current” value (KCNQ3*-W265L; 0.1 µM) was -75.60 ± 1.02 mV, the “V0.5 Normalized tail current” value (KCNQ3*-W265L; 1 µM) was -86.19 ± 1.09 mV and the “V0.5 Normalized tail current” value (KCNQ3*-W265L; 3 µM) was -96.66 ± 1.64 mV. For the same compound, the “V0.5 Normalized tail current” value (KCNQ3*-W265L; 10 µM) was -105.3 ± 2.56 mV, the “V0.5 Normalized tail current” value (KCNQ3*-W265L; 100 µM) was -146.0 ± 1.92 mV and the EC50 (KCNQ3*-W265L; EC50 EM) was 0.14 ± 0.03 µM. The EC50 (KCNQ3*-W265L; EC50 V0.5 Activation) was 2.11 ± 0.09 µM, the “sensitivity in terms of potency versus KCNQ3*” value (KCNQ3*-W265L; dose-response) was “approximately fivefold” and the Slope (KCNQ3*-G244A) was 11.55 ± 1.94 mV. For the same compound, the “V0.5 Normalized tail current” value (KCNQ3*-G244A) was -97.68 ± 3.18 mV, the “carnosic acid effects compared with KCNQ3*” value (KCNQ3*-G244A) was “indistinguishably” and the EC50 (KCNQ3*-R242A) was 8.31 ± 0.14 µM. For the same compound, the “V0.5 Normalized tail current” value (KCNQ3*-R242A; 0.1 µM) was -21.11 ± 0.68 mV, the “V0.5 Normalized tail current” value (KCNQ3*-R242A; 1 µM) was -24.52 ± 0.42 mV and the “V0.5 Normalized tail current” value (KCNQ3*-R242A; 3 µM) was -27.59 ± 0.38 mV. The “V0.5 Normalized tail current” value (KCNQ3*-R242A; 10 µM) was -30.42 ± 0.37 mV, the “V0.5 Normalized tail current” value (KCNQ3*-R242A; 30 µM) was -35.30 ± 0.41 mV and the Slope (KCNQ3*-R242A; 100 µM) was 8.88 ± 0.59 mV. The “efficacy in terms of ΔV0.5act versus KCNQ3*” value (KCNQ3*-R242A; dose-response) was “halved”, the “effect on binding of [35S]tert-butylbicyclophosphorothionate” value (GABAA receptor) was “decrease the binding affinity” and the “V0.5 Normalized tail current” value (KCNQ3/5; 0.1 µM) was -41.88 ± 0.50 mV. For the same compound, the “V0.5 Normalized tail current” value (KCNQ3/5; 1 µM) was -47.59 ± 0.51 mV, the “V0.5 Normalized tail current” value (KCNQ3/5; 3 µM) was -52.07 ± 0.47 mV and the “V0.5 Normalized tail current” value (KCNQ3/5; 10 µM) was -56.02 ± 0.57 mV. The “V0.5 Normalized tail current” value (KCNQ3/5; 30 µM) was -62.10 ± 0.87 mV, the “V0.5 Normalized tail current” value (KCNQ3/5; 100 µM) was -68.83 ± 1.11 mV and the channel opening (KCNQ3/5; 100 µM) was “powerful opener”. It also gave an EC50 (KCNQ3/5; EC50 EM) of 4.21 ± 0.16 µM and an EC50 (KCNQ3/5; EC50 V0.5 Activation) of 4.53 ± 0.11 µM.
